From a melting point compilation (Tetko et al.; mined from patent text by program, amines drawn as free bases though some values may be those of a salt)

SMILES	melting point
CCOC(=O)c1cc2n(c1)CN(C(=O)OCC)c1ccccc1-2	80 to 82 °C
N=C(Nc1ccccc1-c1ccccc1)N1CCCC(O)C1 (stereo unspecified)	144 to 145 °C
CC(C)(C)c1cc2c(c(C(C)(C)C)c1)OC(=O)C2c1ccc(OCC(=O)O)cc1 (stereo unspecified)	158 to 162 °C
CCCNC(=O)c1cc2cc(OCCNC[C@H](O)COc3ccccc3)ccc2o1	127 to 128 °C
CCS(=O)(=O)Nc1ccc([N+](=O)[O-])cc1SC1CCCCC1	119 to 120 °C
CC#CC(=O)Nc1ccc2ncnc(Nc3cccc(N(C)C)c3)c2c1	252 to 254 °C
O=C(O)c1ccc(NC(=O)c2ccc3c(c2)OCCO3)cc1	278 to 280 °C
COc1ccc(CC(=O)NCCc2ccc3[nH]cc(CC#N)c3c2)cc1	155 to 156 °C
O=C(O)C1=CCC2CC(=O)N12 (stereo unspecified)	172 to 174 °C
CCOC(=O)C1=C(C)Nc2ccn(CCCN(C)C)c(=O)c2C1c1cccc([N+](=O)[O-])c1 (stereo unspecified)	212 to 213 °C
Brc1ccc(N2CCC3(CCNCC3)CC2)nc1	103 to 105 °C
O=C1SC(Cc2ccc(OCCON=Cc3ccc(-c4ccccc4)cc3)cc2)C(=O)N1C(c1ccccc1)(c1ccccc1)c1ccccc1 (stereo unspecified)	157 to 159 °C
C=CCOC(=O)COc1cccc(NC(=O)NCNC(=O)c2ccccc2C(=O)c2ccccc2)c1	147 to 149 °C
Nc1nc(C(Br)Br)nc(C(Br)Br)n1	171 to 173 °C
O=c1cccc2c([N+](=O)[O-])cccc2n1	139 to 141 °C
CC(=O)Oc1ccc2c(c1)CC1(C)Cc3ccccc3C1=CC2C (stereo unspecified)	131 to 133 °C
C[C@H]1CCCN(C(=O)[C@H]2Cc3cc(N4CCCCC4)ccc3N2c2cccnn2)C1	226 to 228 °C
Oc1ccc2c(c1)OCC(c1ccc(F)cc1)C2c1ccc(OCCN2CCCCC2)cc1 (stereo unspecified)	146 to 147 °C
CCCc1c(OCCOc2cccc(C(=O)O)c2)ccc(C(C)=O)c1O	155 °C
O=C(CC1CC(OC(=O)c2ccccc2)CCC1=O)c1ccccc1 (stereo unspecified)	107 to 108 °C
CC(C)(C)OC(=O)NCCNC(=O)c1ncccc1N	103 to 105 °C

SMILES	melting point
COC(=O)C(C(=O)c1ccc(Cn2ccc3ccc(NC(=O)CC4CCCC4)cc32)c(OC)c1)S(=O)(=O)c1ccccc1 (stereo unspecified)	93 to 98 °C
Cc1oc(-c2cc3ccccc3s2)nc1COc1ccc(CCCCn2cncn2)cc1	131 to 132 °C
OCc1nn(-c2ccccc2)c2c1CCCC2	75 to 77 °C
COC(=O)[C@H](Cc1cncn1C)NC(=O)C(Cc1cccc2ccccc12)Cc1cccc2ccccc12	199 to 200 °C
CCc1cc([N+](=O)[O-])cc(C=O)c1O	93.5 to 94 °C
COc1ccc(C2=NN(C3CCN(C(=O)CCCNC(=O)OC(C)(C)C)CC3)C(=O)[C@@H]3CC=CC[C@H]23)cc1OC	79 to 83 °C
CCCCONc1ncn(-c2c(C)cccc2C)c(=O)n1	144 to 145 °C
O=C1NC2CCCCN2C12CCNCC2 (stereo unspecified)	193 °C
COC1(N)C=CC(C(=O)c2cnc(Nc3ccccc3)s2)=CC1 (stereo unspecified)	222 °C
CNc1cccc(C2C(C(=O)OC)=C(C)NC(C)=C2C(=O)OC)c1	182 to 184 °C
O=S(=O)(c1ccccc1)C(CC(F)(F)F)c1ccc(C(O)(C(F)(F)F)C(F)(F)F)cc1 (stereo unspecified)	151 °C
O=C(O)COc1ccc(OCC2CCN(c3ccncc3)CC2)cc1	278 to 281 °C
CCOc1cccc(-c2n[nH]c(-c3ccccc3C)n2)c1	84 to 86 °C
O=c1[nH]c(CSCc2ccccc2)nc2nccnc12	224 to 226 °C
Cc1nc(C)c(C(C)(O)c2ccsc2)o1 (stereo unspecified)	132 to 133 °C
CC1(C)OC(c2ccc(S(C)(=O)=O)cc2)=C(c2ccc3c(c2)OCO3)C1=O	178 to 179 °C
COc1ccc(CS[C@H]2C[C@@H](C(=O)N3CCN(CCO)CC3)N(C(=O)OCc3ccc([N+](=O)[O-])cc3)C2)cc1	140 to 141 °C
NC(=O)CCCCCCCCCCn1nnnc1S	112 to 114 °C
Cc1cccc(/C=C/c2nc(COc3ccc(CCCCn4ccnc4CCO)cc3)co2)c1	109 to 111 °C
CCOC(=O)c1ncc2[nH]c3cccc(Cc4ccccc4)c3c2c1COC	160 to 168 °C
CN1CCN(c2ccc(N)cc2F)CC1	89 to 91 °C

SMILES	melting point
OCCNc1nc(N2CCNCC2)nc2c1SCCC2	116 to 120 °C
CCOC(=O)C1=C(COCc2nnn(CCNc3nc(N)n[nH]3)n2)NC(C)=C(C(=O)OC)C1c1cccc(Cl)c1Cl (stereo unspecified)	85 °C
COc1ccc(N2C(=O)N(c3cccc(C(N)=O)c3)c3nc(Nc4cccc(CCN5CCN(C)CC5)c4)ncc3C2C)cc1 (stereo unspecified)	243 to 251 °C
CSc1ccc(C2=C(c3ccccc3)C(=O)OC23CCCC3)cc1	147 to 148 °C
COc1cc(OC)nc(NC(=O)OC(C)C)n1	51 to 54 °C
COC1=Nc2cc(OC)c(F)cc2C(c2ccccc2Cl)=NC1C(C)=O (stereo unspecified)	172 to 174 °C
CCCC(CCC)C(=O)N[C@@H](Cc1ccccc1)C(=O)N[C@H]1CCOC1=O	203 to 205 °C
Cn1cnc(S(=O)(=O)Nc2ccc(C(c3c(O)c4c(oc3=O)CCCCCC4)C3CC3)cc2)c1 (stereo unspecified)	238 to 242 °C
NC(=O)NN(C(=O)c1ccccc1)c1ccccn1	206 °C
CC(C(=O)O)c1ccc2cc(OCC(=O)O)ccc2c1 (stereo unspecified)	185 to 188 °C
CCOC(=O)C1=C(C)NC(C)=C(C(=O)OCCN2CCN(C(c3ccc(C)cc3)c3ccc(C)cc3)CC2)C1c1cccc(Cl)c1 (stereo unspecified)	79 to 81 °C
COc1cc(-c2ccc(NC(=O)OC(C)(C)C)cc2)c(C(C)=NOCc2ccc([N+](=O)[O-])cc2)cc1O	91 to 96.8 °C
CC(=O)c1ccc(-c2ccc(Br)cc2C)cc1	84 to 86 °C
COC(=O)C1=C(C)NC(CO)=C(C(=O)OC)C1c1ccccc1[N+](=O)[O-] (stereo unspecified)	164 to 165 °C
NC(=O)CCCCCc1nccc(NC(N)=NCC(F)(F)F)n1	179 to 181 °C
CCCNC(=O)CCc1ccc2c(c1)c(Cc1ccc(C(=O)O)cc1OC)cn2CCC	68 to 78 °C
COc1cc(NC(=O)c2cccc(CSc3nc(NC(C)=O)n[nH]3)c2)cc(OC)c1OC	196 to 201 °C
CCCCCCCCOc1ccc(-c2ccc(OCCCCCCCC)c(F)c2)cc1F	84 °C
CC(=O)Nc1cc(SCC(C)C)ccc1[N+](=O)[O-]	53 to 55 °C
COC(=O)c1ncn2c1CN=C(c1ccccc1Cl)c1cc(Cl)ccc1-2	206 to 208 °C
CCOP(=O)(/C=C/c1cn(-c2ccccc2)nc1OCc1ccc(OCc2nc(-c3ccco3)oc2C)c(C(=O)O)c1)OCC	169 to 170 °C

The next lines start with the values.

melting point	SMILES
162 to 164 °C	N#Cc1cnn(-c2c(Cl)cc(C(F)(F)F)cc2Cl)c1N1CCC1=O
199 to 201 °C	CN1C2CCCC1CC(NC(=O)c1cc(Cl)cc3nc(-c4ccccc4)oc13)C2 (stereo unspecified)
> 300 °C	O=C(O)c1nc2cc(N3CCCCC3)c([N+](=O)[O-])cc2[nH]c1=O
84 to 85 °C	Nc1ccc(OCC(F)(F)F)cc1[N+](=O)[O-]
94 °C	Cc1cnc(I)nc1Oc1cc(C(F)(F)F)nn1C
123 to 125 °C	Cc1ccc2cccc(OCc3c(Cl)ccc(OCCN)c3Cl)c2n1
247 to 280 °C	COc1cc2nc(N)nc(-c3ccccc3Cl)c2cc1OC
147 to 150 °C	CCOC(=O)c1cn(CC)c2c(F)c(C)c(F)cc2c1=O
70.1 to 72 °C	O=c1ccc(C(F)(F)F)cn1Cc1ccc(F)cc1
118 to 120 °C	CCC(C)C1C(=O)NN(c2ccc(Cl)c(Cl)c2)C1=O (stereo unspecified)
94 to 97 °C	CN1C(=O)N(c2cc(F)ccc2F)C(=O)C1=Cc1ccccc1F
210 to 212 °C	Cc1cc2c(-c3ccccc3)c3n(c(=O)c2cc1C)CCCC3O (stereo unspecified)
170 to 172 °C	CCCCOc1cc(C(=O)O)cc(N)c1C(=O)c1ccc(C)cc1
130 to 131 °C	COc1ccc(C=O)c(Oc2ccc(Cl)cc2[N+](=O)[O-])c1
192 to 194 °C	COc1cn(-c2cc3c(cc2F)OC(F)(F)C(F)(F)O3)nc(-c2ccnn2-c2ccccc2)c1=O
76 to 77 °C	CCC(CO)Nc1c(-c2c(F)cc(F)cc2F)c(Cl)nc2ncnn12 (stereo unspecified)
198 to 200 °C	NC1=NC(Cl)N(c2c([N+](=O)[O-])cc([N+](=O)[O-])cc2C(F)(F)F)C(Cl)=C1 (stereo unspecified)

melting point	SMILES
221 to 222 °C	CC(C)Cn1c(C#N)c(-c2ccccc2)c2cccnc2c1=O
275 to 278 °C	CC1(C)CCC(C)(C)c2cc3c(cc21)CCc1nc(-c2ccc(C(=O)O)cc2)sc1-3
130 to 132 °C	CC(C)(C)Nc1nc2cc(Cl)c(Cl)cc2n1C1CC(CO)C(O)C1O (stereo unspecified)
108 to 111 °C	CC(=NOCCO)c1ccc(-c2ccc(C(F)(F)F)cc2)cc1
78 to 80 °C	O=C1CCCCC1c1cccnc1 (stereo unspecified)
237 to 240 °C	COc1nc(Nc2ccc(F)cc2F)c(C(=O)O)cc1F
281 °C	CC1(C)OC(=C(C#N)C#N)C(C#N)=C1/C=C/c1ccc([N+](=O)[O-])cc1
123 to 125 °C	CCC(OC)(c1cccc(OCc2cc3ccccc3n(C)c2=O)c1)c1nccs1 (stereo unspecified)
216 to 217 °C	Cc1cc2ccccn2c1C(=O)c1ccc(O)c(Br)c1
98 °C	CNC(=O)[C@@H]1C[C@@H](OCC2CC2)CN1S(=O)(=O)c1ccc(Cl)c(COc2cccc3c(-n4ccnc4)cc(C)nc23)c1Cl
237 to 242 °C	C=Cc1cnc(Nc2ccc(C#N)cc2)nc1Nc1c(C)cc(C)cc1C
115 to 120 °C	CC(C)OC(=O)Cn1c(=O)n(C)c(=O)n(-c2cc(N=c3oc(=O)n4n3CCCC4)c(F)cc2Cl)c1=O
121 to 123 °C	CCCCC(=O)Nc1ccc(C(F)(F)F)c(-n2nc(CC)n(Cc3ccc(-c4ccccc4S(=O)(=O)NC(=O)OC(C)(C)C)cc3F)c2=O)c1
89 to 91 °C	CC1CCCC(C)N1C(=O)C=Cc1ccc(C(F)(F)F)cc1 (stereo unspecified)
270 to 271 °C	N#Cc1ccc2oc3cc(O)ccc3c2c1
194 to 197 °C	Cc1cc2c(c(C)n1)c(=O)oc1ccccc12
